Data taken from patent US20160290995A1, “METHODS OF SELECTING AKT AGONISTS OR ANTAGONISTS” (OREGON HEALTH & SCIENCE UNIVERSITY, priority 2015, published 2016).
Where two headings read alike, the source gives them in different places.

Key:
Akt [1] = assay: FOXO1-clover reporter live-cell imaging (relative nuclear intensity) in C3H10T1/2 fibroblasts; assay type: cell-based, mouse; details: for effect of inhibitor on IGF-I-mediated reporter localization: 90 min, graded inhibitor concentrations; for IC50: Mus musculus, C3H 10T1/2; for mean rate of nuclear import of FOXO1-clover: after R3-IGF-I 250 pM; for change of nuclear levels of the reporter on growth factor addition (result in words): different concentrations; for change of nuclear levels of the reporter on growth factor addition (result in words) / time to half-maximal translocation/accumulation of reporter in the cytoplasm after onset of incubation / time to maximal translocation values: cells pre-incubated in SFM; for time to half-maximal translocation/accumulation of reporter in the cytoplasm after onset of incubation / time to maximal translocation values: different growth factor concentrations
Description: (§1) Cells were imaged every 2-min for 60 min. At the end of the incubation period whole cell lysates were collected.
10T1/2 cells and C2 myoblasts were incubated in serum-free medium for 90 min. R3-IGF-I was added in supplemented FluoroBrite [0 to 500 pM], and cells were imaged every 2-min for 60 min. […]
(§2) Live cell imaging was performed using an EVOS FL Auto microscope with a stage top incubator that was maintained at 37° C. and 95% humidified air with 5% CO2. Images were collected at 100× magnification at different intervals, using a 10× Fluorite objective (numerical aperture: 0.3), and a GFP light cube (excitation peak, 472/22 nm; emission peak, 510/42 nm). Images were analyzed with the NIH ImageJ plug-in Fiji (NIH, Bethesda, Md.), after using the Polynomial Fit plug-in to subtract background fluorescence, the Stack Reg (rigid registration) plug-in to register images, and the Gaussian Blur plug-in (at 2-pixels) to average fluorescence across pixels. Individual cells were manually tracked using the mTrackJ plug-in (Meijering E et al, Methods Enzymol 504, 183-200 (2012); incorporated by reference herein) by selecting a single point in the nucleus. Cells that died, divided, or migrated out of frame were excluded from analysis. In experiments performed in 6-well dishes, two locations on opposite sides of the well were imaged, while for studies using 24-well plates, one central location was imaged. In each location, at least 25 cells were tracked.

Akt phosphorylation = assay: Immunoblotting of Akt and PRAS40 phosphorylation in 10T1/2 whole cell lysates; assay type: cell-based, mouse; details: for time course of Akt and PRAS40 phosphorylation (result in words): insulin 1400 pM, EGF 4.2 nM, PDGF-AA 1400 pM, PDGF-BB 104 pM, up to 90 min
Description: as §1
Whole cell protein lysates were prepared as described (Mukherjee A and Rotwein P, Mol Endorcrinol 22, 1238-1250 (2008); incorporated by reference herein). Protein aliquots (15 μg/lane) were resolved by SDS-PAGE (12% separating gel), followed by transfer to Immobilon-FL membranes, and blocking with 50% AquaBlock solution. Membranes were incubated sequentially with primary and secondary antibodies, as described (Mukherjee and Rotwein, 2008 supra). Primary antibodies were incubated for 12-16 hr at a 1:1000 dilution, except for α-tubulin (1:10,000), and secondary antibodies for 90 min at 1:5000. Images were captured using the LiCoR Odyssey and version 3.0 analysis software (Lincoln, Nebr.).
C3H10T1/2 cells stably expressing FoxO1-clover were incubated in SFM with Fluorobrite imaging media for 90 min followed by addition of insulin [1400 pM], EGF [4.2 nM], PDGF-AA [1400 pM], or PDGF BB [104 pM]. Whole protein lysates were collected after 0, 5, 15, 30, 60, and 90 min of growth factor exposure by washing cells twice with cold PBS and addition of RIPA buffer containing protease and phosphatase inhibitors (Mukherjee A and Rotwein P, Mol Endocrinol 22, 1238-1250 (2008); incorporated by reference herein). Protein aliquots (12.5 μg/lane) were resolved by SDS PAGE (10% separating gels), and transferred onto Immobilon-FL membranes. Membranes were incubated in 50% AquaBlock for 60 min, followed by addition of primary antibodies at 1:1000 dilution for 16 hr, and secondary antibodies for 90 min at 1:5000. Images were collected using the LiCoR Odyssey and analysis software version 3.0 (Lincoln, Nebr.).

Akt [2] = assay: FoxO1-clover reporter live-cell imaging in HeLa cells; assay type: cell-based; details: IGF-I 500 pM, insulin 1400 pM, EGF 4.2 nM, PDGF-BB 4.1 nM, PDGF-AA 3.5 nM; 90 min
Description: HeLa cells (ATCC #CCL2) were incubated in DMEM supplemented with 10% FBS. Cells were transduced at 50% of confluent density with concentrated FoxO1-clover virus in the presence of polybrene (6 μg/ml), as described (Gross S M and Rotwein P, Skelet Muscle 3, doi10.1186/2044-5040-3-10 (2013); incorporated by reference herein), and sorted by fluorescence intensity with a Becton-Dickinson Influx cell sorter. Reporter expression was stable for at least 10 passages in each sorted cell population. C3H10T1/2 mouse embryonic fibroblasts (ATC #CCL226) stably expressing FoxO1-clover (Gross and Rotwein, 2015), were maintained under selection with puromycin (2 μg/ml).
as §2, with “tracked. The relative nuclear intensity of the FoxO1-clover reporter protein was calculated in each cell by normalizing the values measured at time 0 to 100%. This corresponded to incubation in serum-free medium (SFM). In graphs in which single cell responses were plotted with C3H10T1/2 cells, we applied a time-weighted smoothing filter to each data point. This consisted of averaging contributions from the two prior and two succeeding times (adding 50% of the prior or succeeding time point, and 25% of the next succeeding or earlier time point to 100% of the value of the time point in question, and then dividing by 2.5).” for “tracked.”
Short-term responses to individual growth factors: C3H10T1/2 cells were incubated in serum-free Fluorobrite medium plus 2 mM L-glutamine and 0.1% bovine serum albumin for 90 min. Different concentrations of growth factors were added and images were collected every 2 min for 90 min. Growth factors included insulin [0 to 1400 pM], EGF [0 to 4.2 nM], PDGF-AA [0 to 1400 pM], or PDGF-BB [0 to 104 pM]. HeLa cells were incubated in serum-free Fluorobrite medium for 120 min and then incubated with insulin [1400 pM], EGF [4.2 nM], PDGF-AA [3.5 nM], PDGF-BB [4.1 nM], or R3-486 IGF-I [500 pM], with images collected every 2 min.

[3] = two highest concentrations of PDGF-AA
[4] = higher concentrations of PDGF-BB
[5] = lower growth factor concentrations

Molecule: C[C@]1(O)C[C@@H](c2nc(-c3ccc4ccc(-c5ccccc5)nc4c3)c3c(N)nccn32)C1 [Linsitinib, reference compound]
- effect of inhibitor on IGF-I-mediated reporter localization (Akt [1]; IGF-I 500 pM): dose-dependent decline in maximal IGF-I-mediated cytoplasmic localization of the FoxO1-clover reporter molecule

Molecule: Oc1cccc(-c2nc(N3CCOCC3)c3oc4ncccc4c3n2)c1 [PI103, reference compound]
- fraction of reporter in the nucleus (Akt [1]; 60 min after PI103 500 nM, following 60 min IGF-I 250 pM, scaled 0% = IGF-I, 100% = leptomycin): ~56%
- effect of inhibitor on IGF-I-mediated reporter localization (Akt [1]; IGF-I 500 pM): dose-dependent decline in maximal IGF-I-mediated cytoplasmic localization of the FoxO1-clover reporter molecule
- enhancement of mean rate of nuclear import by inhibition of PI3-kinase (Akt [1]; Lepto plus PI103 vs Lepto alone): up to 4 fold
- IC50 (Akt [1]; IGF-I 500 pM, read-out: IC50 for IGF-I-mediated signaling): 50 to 200 nM
- IC50 (Akt [1]; PDGF-BB 830 pM, read-out: IC50 for PDGF-BB-mediated signaling): 20 to 50 nM
- increase in nuclear localization of the reporter compared with serum-free medium alone (Akt [1]; PI103 500 nM added to cells in SFM): ~10%
- time after addition of PI103 at which N/C=1 (Akt [1]; PI103 500 nM after IGF-I 250 pM): ~15 min
- mean rate of nuclear import of FOXO1-clover (Akt [1]; leptomycin B 100 nM plus PI103 500 nM): > 12 % per min

Molecule: CCC(=C/[C@H](C)C/C=C/C(C)=C/[C@@H](C)C(=O)[C@@H](C)[C@H](O)[C@@H](C)C/C(C)=C/C(=O)O)/C=C/[C@@H]1OC(=O)C=C[C@@H]1C [leptomycin B, reference compound]
- half-maximal time of nuclear appearance of reporter after leptomycin B (Akt [1]; leptomycin B 100 nM after 60 min IGF-I 25 pM): ~5 min
- half-maximal time of nuclear appearance of reporter after leptomycin B (Akt [1]; leptomycin B 100 nM after 60 min IGF-I 250 pM): ~25 min
- change of nuclear intensity of the reporter after subsequent leptomycin (Akt [1]; leptomycin B 100 nM after PI103 in SFM): nearly a doubling
- mean rate of nuclear import of FOXO1-clover (Akt [1]; leptomycin B 100 nM alone, single exponential fit of individual cells): ~3 % per min

Molecule: EGF: mouse EGF (Gibco-Life Technologies), peptide growth factor (NSYPGCPSSYDGYCLNGGVCMHIESLDSYTCNCVIGYSGDRCQTRDLRWWELR; Epidermal growth factor; UniProt P01132 977-1029, looked up)
- change of nuclear levels of the reporter on growth factor addition (result in words) (Akt [1]; population level): rapid, dose-dependent, and transient decreases in nuclear levels of the FoxO1-clover reporter protein
- time by which signal intensity was waning (Akt [1]; population level, after EGF treatment): 45 min
- time to half-maximal translocation/accumulation of reporter in the cytoplasm after onset of incubation (Akt [1]; population level): 6 to 9 min
- time to maximal translocation values (Akt [1]; population level): ~13 min
- response to a second treatment with the same growth factor (Akt [1]; sequential exposures, IGF-I 50 or 500 pM with 90-min washout, EGF 4.2 nM after 60 min EGF): minimally promoted FoxO1-clover reporter translocation out of the nucleus
- time course of Akt and PRAS40 phosphorylation (result in words) (Akt phosphorylation): Similarly transient effects
- signaling response in HeLa FoxO1-clover cells (result in words) (Akt [2]): transient responses

Molecule: PDGF-AA: recombinant human PDGF-AA (Thermo Scientific); binds almost exclusively to the PDGF-α receptor
- change of nuclear levels of the reporter on growth factor addition (result in words) (Akt [1]; population level): rapid, dose-dependent decreases in nuclear levels of FoxO1-clover
- decline of population response from peak values (Akt [1]; over the next 40 min after the peak): 50-75%
- time to half-maximal translocation/accumulation of reporter in the cytoplasm after onset of incubation (Akt [1]; population level): 6 to 10 min
- time to maximal translocation values (Akt [1]; population level): ~14 min
- fraction of cells demonstrating sustained effects (Akt [1]; [3]): 10-15%
- fraction of cells showing no or minimal responses (Akt [1]; [3]): 25-30%
- time course of Akt and PRAS40 phosphorylation (result in words) (Akt phosphorylation): Similarly brief effects
- signaling response in HeLa FoxO1-clover cells (result in words) (Akt [2]): ineffective

Molecule: PDGF-BB: recombinant human PDGF-BB (Invitrogen); binds PDGF-α and PDGF-β receptors
- duration of maintained cytoplasmic localization of the reporter (Akt [1]; [4]): at least 90 min
- time to half-maximal accumulation of FoxO1-clover in the cytoplasm (Akt [1]; [4]): < 5 min
- time to half-maximal accumulation of FoxO1-clover in the cytoplasm (Akt [1]; [5]): 8 to 9 min
- time to maximal values (Akt [1]; [5]): ~14 min
- fraction of cells showing large and sustained signaling responses (Akt [1]; peak concentrations of PDGF-BB): 90-99%
- subcellular localization of FOXO1-clover (result in words) (Akt [1]; serum-starved cells, 60 min, 10% FBS, PDGF-BB 206 pM, R3-IGF-I 1 nM, BMP-2 15 nM): rapid and sustained translocation of the reporter from the nucleus to the cytoplasm
- Akt phosphorylation (pAkt T308 immunoblot) (Akt phosphorylation; 60 min, 10% FBS, PDGF-BB 206 pM, R3-IGF-I 1 nM, BMP-2 15 nM): stimulation of Akt phosphorylation
- time course of Akt and PRAS40 phosphorylation (result in words) (Akt phosphorylation): Similarly sustained signaling
- signaling response in HeLa FoxO1-clover cells (result in words) (Akt [2]): transient responses
